The text below walks through data of US11911393B2, “Non-catalytic substrate-selective p38alpha-specific MAPK inhibitors with endothelial-stabilizing and anti-inflammatory activity, and methods of use thereof” (University of Maryland, Baltimore, priority 2016, dated 2024).

Data set [1] deals with patients with Crohn's disease. The settings on record: cited from earlier work.
The target in data set [2] is T1, unphosphorylated recombinant human p38α (Homo sapiens, UniProt Q16539).
T1 construct: made in house; host or cells: E. coli BL21
The data set can be described thus: Differential scanning fluorimetry (DSF), binding to p38α. The settings on record: for stabilization of p38α in DSF (binding), in words: DSF melting temperature, concentration series. For orientation: Differential scanning fluorimetry follows unfolding on heating by fluorescence.

For the next data set, the target named is ERK2 (Homo sapiens, UniProt P28482). The data set can be described thus: DSF, binding to ERK2. As to conditions: for stabilization of ERK2 in DSF (binding), in words: test compounds at 10-100 μM.
The next data set has as its system HMVECL monolayers. Description: Endothelial permeability assay (10 kDa dextran flux). It counts as cell-based, human. As to conditions: HMVECL, 10 kDa dextran, TNFα and 39.5° C. for 6 h. How it is done:
Endothelial permeability assay: Permeability of HMVECL monolayers was assessed by measuring transendothelial flux of 10 kDa dextran conjugated to Cascade blue fluorescent dye for 30 min at 37° C. in Matrigel-coated 3 μm pore size Transwell plates.

Data set [3] concerns IL-8-directed neutrophil TEM through HMVECLs. Description: Neutrophil transendothelial migration (TEM) assay. It counts as cell-based, human. As to conditions: HMVECLs preincubated at 39.5° C. for 6 h.
The test system of the next data set is HMVECLs. The data set can be described thus: Cytotoxicity assay (MTS, LDH release). It counts as cell-based, human. The settings on record: 100 μM for 48 h. On the procedure: Cytotoxicity of HMVECL exposed to 10-100 μM of each compound is analyzed by MTS assay (Promega), LDH release (Promega), and immunoblotting for activated caspase-3 (Cell Signaling).
Cytotoxicity assay: Cytotoxicity was monitored in parallel HMVEC-L monolayers established in 96-well culture plates using a colorimetric assay that measured reduction of 3-(4,5-dimethylthiazol-2-yl)-5-(3-carboxymethoxyphenyl)-2-(4-sulfophenyl)-2H-tetrazolium (MTS) to a formazan dye (CellTiter 96™; Promega; Madison, WI) according to the manufacturer's protocol and quantifying product formation by measuring absorption at 490 nm.
(In general: LDH leaks from cells whose membrane has failed.)

The test system of data set [4] is LPS/hyperthermia-induced ALI in CD1 mice. The data set can be described thus: Mouse i.t. LPS/FRH-induced acute lung injury model. As to conditions: single i.p. injection of 100-1000 μg UM101, 1000 μg UM60 or 1000 μg SB203580, 30 min before i.t. 50 μg LPS and hyperthermia.
A further data set has as its system rheumatoid arthritis. As to conditions: two trials in rheumatoid arthritis; cited from earlier work.
In data set [5] the test system is patients at-risk for ARDS. The settings on record: early phase IIa trial, cited from earlier work.
For data set [6], the system named is patients with hypercholesterolemia. The settings on record: cited from earlier work.
Setting [7] is: 100 μM, change in melting temperature relative to DMSO control in DSF assay.

Like-named read-outs stand apart in the source and are kept apart here.

Chain of ERK2 (P28482 whole entry, species assumed): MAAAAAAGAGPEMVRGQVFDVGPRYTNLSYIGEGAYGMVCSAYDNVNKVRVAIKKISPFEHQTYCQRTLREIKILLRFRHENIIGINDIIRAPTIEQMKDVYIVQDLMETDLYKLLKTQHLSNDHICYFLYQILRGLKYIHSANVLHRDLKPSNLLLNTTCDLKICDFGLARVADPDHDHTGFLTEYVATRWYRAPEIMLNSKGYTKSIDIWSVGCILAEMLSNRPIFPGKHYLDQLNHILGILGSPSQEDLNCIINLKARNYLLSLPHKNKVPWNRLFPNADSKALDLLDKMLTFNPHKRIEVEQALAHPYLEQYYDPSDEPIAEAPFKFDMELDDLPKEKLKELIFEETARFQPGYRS
T1 sequence (Q16539 whole entry): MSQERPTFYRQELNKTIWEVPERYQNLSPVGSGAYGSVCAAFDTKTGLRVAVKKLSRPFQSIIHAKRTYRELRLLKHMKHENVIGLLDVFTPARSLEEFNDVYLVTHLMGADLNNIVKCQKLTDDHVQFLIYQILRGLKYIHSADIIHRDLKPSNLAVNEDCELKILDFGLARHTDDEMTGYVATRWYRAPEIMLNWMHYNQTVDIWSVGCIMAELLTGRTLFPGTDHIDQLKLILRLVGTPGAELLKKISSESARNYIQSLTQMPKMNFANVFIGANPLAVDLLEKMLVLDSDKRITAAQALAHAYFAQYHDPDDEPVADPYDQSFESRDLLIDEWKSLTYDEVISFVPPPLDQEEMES

In the case of `Cc1ccc(-n2nc(C(C)(C)C)cc2NC(=O)Nc2ccc(OCCN3CCOCC3)c3ccccc23)cc1` [BIRB 796], in data set [1], the “clinical effect in Crohn's disease” value is “no clinical effect” and the “serum CRP levels” value is “transiently reduced”.
On to `O=C1c2cc(S(=O)(=O)NCCO)ccc2-c2ccc(S(=O)(=O)NCCO)cc21` [UM60, N2,N7-di(2-hydroxyethyl)-9-oxo-9H-2,7-fluorenedisulfonamide], for which the ΔTm at 100 µM in data set [2] (100 μM, change in melting temperature relative to DMSO control in DSF assay, read-out: p38α ΔTm (° C.) @100 μM) is 0.735 °C; in [2] (added at 100 μM, DSF, read-out: increase in melting temperature of p38α), about 0.7 °C; at ERK2 (setting [7]), 0.195 °C. Moreover, the “stabilization of p38α in DSF (binding), in words” value (from here on “stabilization of p38α in DSF”) in data set [2] is reported as “stabilized p38α”. The “stabilization of ERK2 in DSF (binding), in words” value (“stabilization of ERK2 in DSF” for short) on ERK2 is “not ERK2”. The results for the “reduction of TNFα/hyperthermia-induced permeability increase” value in the data set on HMVECL monolayers (10 μM), in the data set on HMVECL monolayers (25 μM) and with HMVECL monolayers (100 μM) were “no effect”, “no effect” and 71%, respectively. For the same molecule, the entries for the “reduction of hyperthermia-augmented neutrophil TEM” value in [3] (10 μM), in [3] (25 μM) and in data set [3] (50 μM) were 18%, 89% and “less than baseline levels”, respectively. Further, the “toxicity in LDH release and MTS assays” value in the data set on HMVECLs is on record as “Neither compound was toxic”. For the same molecule, the “mice that died within 24 h” value in data set [4] was “Four of six”.
For the molecule `NC(=O)c1ccc(N(C(N)=O)c2c(F)cccc2F)nc1-c1ccc(F)cc1F` [VX-702], the “proportion of treated subjects with ACR20 symptom score vs. placebo” value in the data set with rheumatoid arthritis is “small increases”.
In the case of `COc1ccccc1N1CCN(CCCCNS(=O)(=O)c2ccc(C)cc2)CC1` [compound 2], in [2] (setting [7]), the “p38α ΔTm (° C.) @100 μM” value is −0.05 °C. Also, the “ERK2 ΔTm (° C.) @100 μM” value at ERK2 (setting [7]) was found to be 0.412 °C.
With `O=C1NCCN1CCNS(=O)(=O)c1ccc(S(=O)(=O)c2ccccc2)s1` [compound 3], in data set [2] (setting [7]), the “p38α ΔTm (° C.) @100 μM” value stood at 0.282 °C. The “stabilization of p38α in DSF” value in data set [2] is recorded as “concentration-dependent stabilization of p38α”. Besides, the “ERK2 ΔTm (° C.) @100 μM” value at ERK2 (setting [7]) amounted to 0.337 °C. On ERK2, the “stabilization of ERK2 in DSF” value was “also stabilized ERK2”.
Turning to `CN1CCN(CC(=O)Nc2ccc(S(N)(=O)=O)cc2)CC1` [compound 4], the “p38α ΔTm (° C.) @100 μM” value in [2] (setting [7]) turned out to be 0.065 °C. Moreover, the “ERK2 ΔTm (° C.) @100 μM” value at ERK2 (setting [7]) was 0.452 °C.
In the case of `CN1CCN(c2ccc(CNS(=O)(=O)c3ccc(-c4ccon4)s3)cc2)CC1` [compound 5], the “p38α ΔTm (° C.) @100 μM” value in data set [2] (setting [7]) came to 0.808 °C. Further, the “stabilization of p38α in DSF” value in data set [2] is “concentration-dependent stabilization of p38α”. The “ERK2 ΔTm (° C.) @100 μM” value on ERK2 (setting [7]) stood at 0.628 °C. The “stabilization of ERK2 in DSF” value on ERK2 is recorded as “also stabilized ERK2”.
As for `Cc1nc(-c2ccc(S(=O)(=O)NCCCN)s2)cs1` [compound 8], in [2] (setting [7]), the “p38α ΔTm (° C.) @100 μM” value was −0.07 °C. Moreover, the “ERK2 ΔTm (° C.) @100 μM” value at ERK2 (setting [7]) came out at 0.531 °C.
With `CS(=O)(=O)N1CCN(c2ncccc2C(F)(F)F)CC1` [compound 13], in data set [2] (setting [7]), the “p38α ΔTm (° C.) @100 μM” value was found to be 0.005 °C. For the same molecule, the “ERK2 ΔTm (° C.) @100 μM” value on ERK2 (setting [7]) was determined as 0.390 °C.
In the same order, the values of `O=S(=O)(c1ccccc1)N(Cc1ccccn1)Cc1ccccn1` [compound 16] are −0.052 °C and 0.444 °C.
In the same order, the values of `O=S(=O)(NCc1csc(-c2cccs2)n1)c1ccc2c(c1)CCO2` [compound 23] are −0.488 °C and −0.598 °C.
The corresponding values for `O=S(=O)(CCS(=O)(=O)c1ccccn1)c1ccc(Cl)cc1` [compound 69] are −0.233 °C and 0.361 °C.
In the case of `O=C(CSc1cccs1)NCCSCc1ccco1` [compound 146], the “p38α ΔTm (° C.) @100 μM” value in [2] (setting [7]) is −1.084 °C. The “ERK2 ΔTm (° C.) @100 μM” value at ERK2 (setting [7]) was −1.632 °C.
As for `Cc1nc(S(=O)(=O)NCc2cc(F)cc3c2OCOC3)cn1C` [compound 150], the “p38α ΔTm (° C.) @100 μM” value in data set [2] (setting [7]) is −0.171 °C. Besides, at ERK2 (setting [7]), the “ERK2 ΔTm (° C.) @100 μM” value was 0.133 °C.
On to `Cc1cc(F)ccc1-c1nc(NC(CO)CO)nc2c1ccc(=O)n2-c1c(F)cccc1F` [dilmapimod], for which, in [5] (patients at-risk for ARDS), the “serum C-reactive protein (CRP) levels” value is reported as “modestly reduced”. Besides, in data set [5], the “safety in patients at-risk for ARDS” value was “safe at the doses administered”.
As for `Cc1c(F)cc(C(=O)NC2CC2)cc1-c1ccc(C(=O)NCC(C)(C)C)cn1` [losmapimod], in data set [6], the “serum CRP” value is “reduced” and the vascular relaxation entry is “improved”.
